US10301291B2, “Imidazole derivative having JNK inhibitory activity and use thereof” (SAMJIN PHARMACEUTICAL CO., LTD., priority 2016, dated 2019)

Legend:
Assay in all cases: Kinase profiling service (Reaction Biology Corp.)
Assay type in all cases: biochemical
Settings in all cases: compound 10 μM
ALK = ALK (Homo sapiens (Human), UniProt Q9UM73)
Description: (§1) An inhibitory activity of the compound (10 μM) of Example 34 against various protein kinases was measured by means of a kinase profiling service (ICso profiler express) of Reaction Biology Corp., wherein ICso, a concentration at which JNK enzyme activity was inhibited 50%, was also measured by sequentially reducing a concentration of the compound.

KDR/VEGFR2 = KDR/VEGFR2 (Homo sapiens (Human), UniProt P35968)
KDR/VEGFR2, sequence (P35968 20-1356): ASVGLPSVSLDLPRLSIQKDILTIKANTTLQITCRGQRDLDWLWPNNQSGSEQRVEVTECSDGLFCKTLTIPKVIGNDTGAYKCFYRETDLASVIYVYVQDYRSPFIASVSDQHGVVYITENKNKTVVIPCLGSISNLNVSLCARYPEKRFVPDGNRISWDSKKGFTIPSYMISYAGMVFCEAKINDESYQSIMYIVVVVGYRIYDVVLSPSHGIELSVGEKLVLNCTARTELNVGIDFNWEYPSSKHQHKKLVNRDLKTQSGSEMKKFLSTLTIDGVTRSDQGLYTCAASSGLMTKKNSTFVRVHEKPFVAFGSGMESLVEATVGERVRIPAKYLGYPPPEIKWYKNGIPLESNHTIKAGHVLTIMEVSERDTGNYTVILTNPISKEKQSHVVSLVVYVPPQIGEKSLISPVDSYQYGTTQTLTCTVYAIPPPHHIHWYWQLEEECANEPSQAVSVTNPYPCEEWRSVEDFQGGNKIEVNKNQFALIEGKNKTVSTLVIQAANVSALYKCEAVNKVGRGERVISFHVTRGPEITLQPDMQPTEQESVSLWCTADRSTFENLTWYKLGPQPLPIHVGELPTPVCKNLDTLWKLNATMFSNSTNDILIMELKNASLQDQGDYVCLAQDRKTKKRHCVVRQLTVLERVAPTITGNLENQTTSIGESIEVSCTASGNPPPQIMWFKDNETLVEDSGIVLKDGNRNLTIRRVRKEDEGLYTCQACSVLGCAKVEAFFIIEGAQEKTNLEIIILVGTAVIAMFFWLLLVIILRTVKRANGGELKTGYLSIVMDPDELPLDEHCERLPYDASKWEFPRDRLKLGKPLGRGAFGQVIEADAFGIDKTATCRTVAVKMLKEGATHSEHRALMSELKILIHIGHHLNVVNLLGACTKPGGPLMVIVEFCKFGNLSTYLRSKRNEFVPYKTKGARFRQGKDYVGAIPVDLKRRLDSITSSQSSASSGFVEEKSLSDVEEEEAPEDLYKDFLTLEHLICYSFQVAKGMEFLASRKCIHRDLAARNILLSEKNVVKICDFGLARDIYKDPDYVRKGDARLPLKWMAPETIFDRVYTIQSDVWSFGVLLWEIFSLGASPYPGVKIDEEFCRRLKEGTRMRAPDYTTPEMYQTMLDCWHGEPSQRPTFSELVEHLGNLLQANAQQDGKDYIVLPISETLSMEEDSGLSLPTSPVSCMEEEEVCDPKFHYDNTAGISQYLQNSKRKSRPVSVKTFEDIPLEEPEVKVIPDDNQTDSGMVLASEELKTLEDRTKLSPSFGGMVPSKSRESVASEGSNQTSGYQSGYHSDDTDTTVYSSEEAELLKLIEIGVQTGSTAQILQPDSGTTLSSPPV
Description: as §1

c-Src = c-Src (Homo sapiens (Human), UniProt P12931)
c-Src, sequence (P12931 whole entry, looked up): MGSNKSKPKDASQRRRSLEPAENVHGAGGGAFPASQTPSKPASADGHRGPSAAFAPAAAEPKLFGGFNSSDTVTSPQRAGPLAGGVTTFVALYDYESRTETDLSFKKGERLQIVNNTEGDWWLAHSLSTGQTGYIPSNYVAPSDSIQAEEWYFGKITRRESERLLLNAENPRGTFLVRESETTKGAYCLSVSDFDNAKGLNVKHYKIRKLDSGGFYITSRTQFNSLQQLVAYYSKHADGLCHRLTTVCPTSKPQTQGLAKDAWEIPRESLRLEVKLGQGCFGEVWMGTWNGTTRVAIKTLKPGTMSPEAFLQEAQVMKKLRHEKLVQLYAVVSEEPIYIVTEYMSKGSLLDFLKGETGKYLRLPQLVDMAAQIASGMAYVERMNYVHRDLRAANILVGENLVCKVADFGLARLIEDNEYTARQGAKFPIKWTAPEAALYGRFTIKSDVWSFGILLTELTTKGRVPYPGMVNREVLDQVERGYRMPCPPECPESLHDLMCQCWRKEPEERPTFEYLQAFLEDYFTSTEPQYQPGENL
Description: as §1

ERK1 = ERK1 (Homo sapiens (Human), UniProt P27361)
ERK1, sequence (P27361 whole entry): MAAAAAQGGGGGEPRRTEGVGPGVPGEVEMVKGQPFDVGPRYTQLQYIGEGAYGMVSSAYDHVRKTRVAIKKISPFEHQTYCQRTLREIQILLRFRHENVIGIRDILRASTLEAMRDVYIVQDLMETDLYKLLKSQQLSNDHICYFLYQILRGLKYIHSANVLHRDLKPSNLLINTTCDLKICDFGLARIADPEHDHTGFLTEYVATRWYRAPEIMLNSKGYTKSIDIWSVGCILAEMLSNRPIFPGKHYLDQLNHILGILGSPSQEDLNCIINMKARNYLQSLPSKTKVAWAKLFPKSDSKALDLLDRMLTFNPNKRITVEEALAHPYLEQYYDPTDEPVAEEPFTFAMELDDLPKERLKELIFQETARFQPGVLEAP
Description: as §1

CDK2/cyclin E = CDK2/cyclin E (Homo sapiens (Human), UniProt P24941)
Description: as §1

ABL1 = ABL1 (Homo sapiens (Human), UniProt P00519)
Description: as §1

mTOR/FRAP1 = mTOR/FRAP1 (Homo sapiens (Human), UniProt P42345)
Description: as §1

JNK3 = JNK3 (Homo sapiens (Human), UniProt P53779)
JNK3, sequence (P53779 whole entry): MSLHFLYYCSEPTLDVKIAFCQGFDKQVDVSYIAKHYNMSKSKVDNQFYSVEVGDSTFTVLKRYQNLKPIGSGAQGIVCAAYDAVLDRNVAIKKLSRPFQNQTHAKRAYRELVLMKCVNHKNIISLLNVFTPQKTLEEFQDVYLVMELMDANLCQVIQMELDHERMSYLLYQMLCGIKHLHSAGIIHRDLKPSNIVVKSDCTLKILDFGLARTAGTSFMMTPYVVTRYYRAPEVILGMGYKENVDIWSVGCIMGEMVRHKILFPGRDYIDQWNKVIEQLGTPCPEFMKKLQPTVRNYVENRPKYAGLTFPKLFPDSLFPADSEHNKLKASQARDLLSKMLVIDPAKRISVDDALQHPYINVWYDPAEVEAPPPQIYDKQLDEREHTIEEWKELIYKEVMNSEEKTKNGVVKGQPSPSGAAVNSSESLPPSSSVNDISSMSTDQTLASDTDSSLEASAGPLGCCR
Description: as §1

FGFR3 = FGFR3 (Homo sapiens (Human), UniProt P22607)
Description: as §1

JNK1 = JNK1 (Homo sapiens (Human), UniProt P45983)
JNK1, sequence (P45983 whole entry): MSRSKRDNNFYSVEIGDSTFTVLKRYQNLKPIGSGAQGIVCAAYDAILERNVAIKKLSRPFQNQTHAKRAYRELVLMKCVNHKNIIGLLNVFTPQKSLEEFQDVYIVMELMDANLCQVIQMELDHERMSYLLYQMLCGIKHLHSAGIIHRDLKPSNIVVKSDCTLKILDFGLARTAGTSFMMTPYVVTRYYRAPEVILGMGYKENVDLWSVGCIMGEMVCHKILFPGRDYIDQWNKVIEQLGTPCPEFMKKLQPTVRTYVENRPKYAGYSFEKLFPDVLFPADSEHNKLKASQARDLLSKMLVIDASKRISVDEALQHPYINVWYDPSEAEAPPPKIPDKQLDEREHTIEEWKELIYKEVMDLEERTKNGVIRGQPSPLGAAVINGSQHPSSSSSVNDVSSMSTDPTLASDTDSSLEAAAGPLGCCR
Description: as §1

[1] = Data 1 and Data 2, read-out: % Enzyme Activity (relative to DMSO controls)

ALK, sequence (Q9UM73 19-1620): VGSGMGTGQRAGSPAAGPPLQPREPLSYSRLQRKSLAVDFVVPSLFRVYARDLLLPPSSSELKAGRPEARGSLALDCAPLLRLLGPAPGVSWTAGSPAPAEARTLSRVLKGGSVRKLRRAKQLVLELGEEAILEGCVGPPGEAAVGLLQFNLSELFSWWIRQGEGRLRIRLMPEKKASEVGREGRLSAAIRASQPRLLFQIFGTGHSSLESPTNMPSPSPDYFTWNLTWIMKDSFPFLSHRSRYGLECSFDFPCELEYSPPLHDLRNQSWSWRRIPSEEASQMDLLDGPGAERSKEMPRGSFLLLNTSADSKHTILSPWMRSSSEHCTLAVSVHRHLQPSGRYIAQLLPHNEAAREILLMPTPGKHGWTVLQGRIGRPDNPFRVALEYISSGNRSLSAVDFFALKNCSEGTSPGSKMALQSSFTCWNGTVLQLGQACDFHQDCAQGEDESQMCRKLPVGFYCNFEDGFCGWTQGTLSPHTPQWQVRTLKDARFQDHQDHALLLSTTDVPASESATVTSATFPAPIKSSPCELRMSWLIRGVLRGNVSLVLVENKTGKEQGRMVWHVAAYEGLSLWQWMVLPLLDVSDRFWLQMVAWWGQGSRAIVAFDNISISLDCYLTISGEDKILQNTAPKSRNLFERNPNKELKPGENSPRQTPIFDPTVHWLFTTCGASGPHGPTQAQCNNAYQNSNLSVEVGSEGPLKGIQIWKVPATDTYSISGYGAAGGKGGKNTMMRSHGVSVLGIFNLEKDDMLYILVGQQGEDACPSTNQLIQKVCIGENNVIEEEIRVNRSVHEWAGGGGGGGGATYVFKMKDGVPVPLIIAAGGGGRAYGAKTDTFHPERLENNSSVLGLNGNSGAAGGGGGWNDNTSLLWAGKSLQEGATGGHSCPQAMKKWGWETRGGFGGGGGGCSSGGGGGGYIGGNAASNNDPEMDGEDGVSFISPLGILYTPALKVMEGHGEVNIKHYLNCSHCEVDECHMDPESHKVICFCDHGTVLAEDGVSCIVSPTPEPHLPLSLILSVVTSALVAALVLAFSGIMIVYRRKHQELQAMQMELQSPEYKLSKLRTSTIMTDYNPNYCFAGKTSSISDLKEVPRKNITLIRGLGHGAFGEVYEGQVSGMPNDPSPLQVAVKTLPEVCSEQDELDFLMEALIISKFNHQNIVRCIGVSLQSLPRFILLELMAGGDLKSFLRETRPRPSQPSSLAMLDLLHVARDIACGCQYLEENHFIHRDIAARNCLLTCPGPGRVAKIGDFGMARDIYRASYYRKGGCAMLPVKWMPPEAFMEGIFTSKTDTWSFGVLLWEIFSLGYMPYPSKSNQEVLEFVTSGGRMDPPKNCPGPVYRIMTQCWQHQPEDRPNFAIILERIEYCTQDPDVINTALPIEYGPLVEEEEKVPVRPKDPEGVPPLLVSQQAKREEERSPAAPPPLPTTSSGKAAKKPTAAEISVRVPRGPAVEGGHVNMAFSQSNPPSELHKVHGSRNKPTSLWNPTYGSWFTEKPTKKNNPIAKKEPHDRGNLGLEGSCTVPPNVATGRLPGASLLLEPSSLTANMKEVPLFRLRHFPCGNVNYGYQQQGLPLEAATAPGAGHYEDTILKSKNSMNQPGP

N#CCc1cnc(-c2ccc3ccccc3c2)n1-c1ccnc(NC2CCCN(C(=O)C3CC3)C2)n1 (centres unmarked) [Example 34, 2-(1-(2-(1-(cyclopropanecarbonyl)piperidine-3-ylamino)pyrimidine-4-yl)-2-(naphthalene-2-yl)-1H-imidazole-5-yl)acetonitrile]
% Enzyme Activity (relative to DMSO controls) (ALK; Data 1 and Data 2): 97.85% | remaining activity at 10 µM (ALK; [1]): 98% | % Enzyme Activity (relative to DMSO controls) (KDR/VEGFR2; Data 1 and Data 2): 73.81% | remaining activity at 10 µM (KDR/VEGFR2; [1]): 74.1% | % Enzyme Activity (relative to DMSO controls) (c-Src; Data 1 and Data 2): 92.54% | remaining activity at 10 µM (c-Src; [1]): 94% | % Enzyme Activity (relative to DMSO controls) (ERK1; Data 1 and Data 2): 97.98% | remaining activity at 10 µM (ERK1; [1]): 98.5% | % Enzyme Activity (relative to DMSO controls) (CDK2/cyclin E; Data 1 and Data 2): 95.83% | remaining activity at 10 µM (CDK2/cyclin E; [1]): 97.5% | % Enzyme Activity (relative to DMSO controls) (ABL1; Data 1 and Data 2): 94.12% | remaining activity at 10 µM (ABL1; [1]): 95.3% | % Enzyme Activity (relative to DMSO controls) (mTOR/FRAP1; Data 1 and Data 2): 101.65% | remaining activity at 10 µM (mTOR/FRAP1; [1]): 105% | % Enzyme Activity (relative to DMSO controls) (JNK3; Data 1 and Data 2): 4.81% | remaining activity at 10 µM (JNK3; [1]): 5.04% | % Enzyme Activity (relative to DMSO controls) (FGFR3; Data 1 and Data 2): 91.29% | remaining activity at 10 µM (FGFR3; [1]): 91.4% | % Enzyme Activity (relative to DMSO controls) (JNK1; Data 1 and Data 2): 2.84% | remaining activity at 10 µM (JNK1; [1]): 3.04%
